{
  "source": "patent US20030206858A1",
  "about": "“Metal complex-containing pharmaceutical agents” (Schering AG, priority 1986, published 2003)",
  "assay": "153Gd remaining in the rat 7 days after i.v. injection of GdDTPA/dimeglumine",
  "format": "in vivo",
  "conditions": "rats, one week after i.v. injection of GdDTPA; 10% calcium trisodium DTPA added to the contrast medium, versus no additive",
  "data": [
    {"smiles": "O=C([O-])CN(CCN(CC(=O)[O-])CC(=O)[O-])CCN(CC(=O)[O-])CC(=O)[O-].[Ca+2].[Na+].[Na+].[Na+]", "note": "[calcium trisodium DTPA, Calcium-trisodium salt of DTPA]", "values": [
      {"measurement": "reduction of the gadolinium concentration in the bones", "value": "about 45%"},
      {"measurement": "reduction of the portion of gadolinium remaining in the bodies", "value": "greater than 30%"}
    ]}
  ]
}
